From patent US8936941B2, “Compositions useful for cancer detection and treatment, a cancer stem cell model, and methods of production and use thereof” (priority 2008, dated 2015)
Entries after “also recorded” stand apart in the source; their conditions may differ.

How the values were obtained:
[1] = tested on: Pdx1-Cre; LSL-KRAS^G12D; p53^lox/+ mouse model of pancreatic neoplasia; conditions: inhibition of Notch signaling; cited from earlier work
PICSCs [2] = assay: LIVE/DEAD Viability/Cytotoxicity Assay on PICSCs; type: cell-based, mouse; conditions: 48 hours, single agent
Method: This Example is directed to stem cell assays utilizing PICSCs generated in accordance with the presently disclosed and claimed inventive concept(s). The PICSCs were generated as described herein above (i.e., transformation of NIH-3T3 cells with RBM3 gene, followed by transplantation into a nude mouse, then sorting of cells obtained from generated tumors utilizing DCAMKL-1).
The PICSCs were exposed to various compounds/anti-cancer agents, and cell viability assays were then performed using the LIVE/DEAD® Viability/Cytotoxicity Assay from Molecular Probes/Invitrogen (Eugene, Oreg.). The LIVE/DEAD® Viability/Cytotoxicity Assay is an assay that provides a two-color fluorescence cell viability that is based on the simultaneous determination of both live and dead cells.
Briefly, PICSCs cells were grown in a 96 well microtitre plate ([…], Newton, N.C.) to about 40% confluency and treated with anti-cancer agents/compounds for 48 hours. Subsequently, chromogenic substrates Calcein AM and Ethidium homodimer-1 (EthD-1) was added to the cells. Calcein AM is well retained within the live cells, producing uniform green fluorescence in live cells (measured at 515 nM). EthD-1 enters cells with damaged membranes and undergoes an enhancement of fluorescence upon binding to nucleic acids, thereby producing a bright red fluorescence in dead cells (measured at 617 nM). The fluorescence measurement was carried out using a microtitre plate reader (Synergy HT, BIO-TEK, Vinooski, Vt.).
In FIGS. 70-84, the PICSCs were treated with increasing concentrations of various compounds or combinations of compounds for 48 hours, and the data presented therein is represented as a % Dead/Live cells ratio following said treatment. […] Values in each figure are given as average±Standard Error Mean, and asterisks denote statistically significant differences (*p<0.01) compared with control.

PICSC tumor xenografts = assay: PICSC generated isograft tumor growth in mice; type: in vivo; conditions: mouse, in vivo
Method: To determine whether targeted DCAMKL-1 downregulation and/or Notch inhibition affected […] generated isograft tumor growth, mice were treated with siRNA to DCAMKL-1 or the Notch inhibitor DAPT. After the tumors were allowed to develop (15 days), siRNA was injected a total of 5 times at an interval of 3 days as described earlier.

HCV subgenomic replicon = assay: HCV replication in GS5 cells (Huh7.5 with HCV subgenomic replicon); type: cell-based, hepatitis C virus; conditions: disruption of microtubules
Method: FIG. 61 illustrates that DCAMKL-1 is required for the HCV replication. A. siRNA against DCAMKL-1 (Si-DCAMKL1, 50 nM and 100 nM) or scrambled siRNA (SCR, 100 nM) were transfected into GS5 cells. Total RNAs were extracted and subjected to real-time quantitative PCR. The levels of HCV and DCAMKL-1 RNAs were considered arbitrary as one unit in untransfected GS5 cells (Cont). Actin mRNA in each sample was used as internal control for PCR. B. Western blot analysis of siRNAs tranfected and untransfected samples as indicated.
Induction of putative stem cell/pluripotency factors by HCV: Normal adult hepatocytes are fully differentiated cells and lack expression of pluripotency factors. However, these cells can be induced to proliferate rapidly after partial hepatectomy and can also be reprogrammed into stem-like cells by forced expression of a cocktail of transcription factors. Thus, the impact of HCV on expression pattern of stem/progenitor cell markers was investigated in GS5 cells, which are derived from hepatoma cell line (Huh7.5) and support constitutive replication of a subgenomic HCV replicon under G418 selection. The replicon expresses HCV nonstructural proteins NS3 through NS5B of the HCV-1a strain and green florescent protein (GFP)-NS5A chimera. Total lysates from parent Huh7.5 and GS5 cells were subjected to Western blot analysis (FIG. 59).
Putative intestinal stem cell marker DCAMKL1 is required for the HCV replication: The eccentric, punctate staining of HCV replication complexes consisting of most of the nonstructural proteins and cellular factors has been a puzzling question. It is known that these replication complexes associate with microtubules in order to replicate the HCV RNA. The DCAMKL1 protein, which binds and polymerizes tubulin into microtubule filaments, is considered as a putative marker for quiescent stem cells in the intestine, and its expression is increased in cancer stem cells. During confocal microscopy, most DCAMKL1 localization was consistently observed in the area containing replication complexes (indicated by NS5A-GFP) and high concentration of microtubules (FIG. 60). The perinuclear co-localization of DCAMKL1 with the NS5A-GFP (indicated by yellow stain) was also observed.

HCT116 tumor xenografts = assay: HCT116 tumor xenograft model in athymic nude mice, intratumoral treatment; type: in vivo; conditions: HCT 116-induced tumor xenograft, via induction of apoptosis
Description: Real-time reverse transcription-PCR analyses. Total RNA isolated either from cells or from human colon cancer cell tumor xenograft samples was subjected to reverse transcription with Superscript™ II RNase H—Reverse Transcriptase and random hexanucleotide primers (Invitrogen, Carlsbad, Calif.). The cDNA was subsequently used to perform Real-time PCR by SYBR chemistry (SYBR® Green I; Molecular Probes) for specific transcripts using gene specific primers and Jumpstart Taq DNA polymerase (Sigma-Aldrich, St. Louis, Mo.). […] The changes in mRNA were expressed as fold change relative to control with ±SEM value.
miRNA analysis. Total miRNA was isolated using mirVana™ miRNA isolation kit (Ambion Inc.). Total miRNA isolated either from cells or from human colon cancer cell tumor xenograft samples were subjected to reverse transcription with Superscript™ II RNase H—Reverse Transcriptase and random hexanucleotide primers (Invitrogen, Carlsbad, Calif.). The cDNA was subsequently used to perform Real-time PCR by SYBR chemistry (SYBR® Green I; Molecular Probes) for pri-let-7a transcript using specific primers and Jumpstart Taq DNA polymerase (Sigma-Aldrich, St. Louis, Mo.). […] The changes in pri-miRNA were expressed as fold change relative to control with ±SEM value. Primers used are: […]
Western Blot analysis. HCT116 and SW480 cells were cultured in a 6 well plates to 40% confluency and were transfected with si-DCAMKL-1 or si-Scr for 72 h. Cells or the tumor xenograft samples were lysed and the concentration of protein was determined by BCA protein assay kit (Pierce Biotechnology Inc., Rockford, Ill.). […] The membrane was blocked in 5% non-fat dry milk for 1 h and probed overnight with a rabbit anti-DCAMKL-1 antibody (Abcam Inc., Cambridge, Mass.) or with rabbit anti-c-Myc antibody (Santa Cruz). Subsequently, the membrane was incubated with anti-rabbit or anti-goat IgG horseradish peroxidase-conjugated antibodies (Amersham-Pharmacia) for 1 h at room temperature. The 82 kDa DCAMKL-1 and 49 kDa c-Myc proteins were detected using ECL™ Western Blotting detection reagents (Amersham-Pharmacia). Actin (43 kDa), used as loading control was identified using a goat polyclonal IgG (Santa Cruz Biotechnology Inc., Santa Cruz, Calif.).
Immunohistochemistry. Heat Induced Epitope Retrieval was performed on 4 μm formalin-fixed paraffin-embedded sections utilizing a pressurized Decloaking Chamber (Biocare Medical) in citrate buffer (pH 6.0) at 99° C. for 18 min. (a) Brightfield: Slides were incubated in 3% hydrogen peroxide, then normal serum and BSA at room temperature for 20 min. After incubation with primary antibody [DCAMKL-1 C-terminal (Abcam), anti-c-Myc (Santa Cruz Biotechnologies), L-FABP (Santa Cruz Biotechnologies)], the slides were incubated in peroxidase-conjugated EnVision™+polymer detection kit (DAKO). Slides were developed with Diaminobenzidine (Sigma). (b) Fluorescence: Slides were first incubated in Image-iT FX signal enhancer (Invitrogen), followed by normal serum and BSA at room temperature for 20 min.
Xenograft tumor model. (a) Liposomal preparation: siRNA was administered into the xenografts after incorporation into 1,2-Dioleoyl-sn-Glycero-3-Phosphocholine (DOPC) (Avanti Polar Lipids, Alabaster, Ala.). DOPC and siRNA were mixed in the presence of excess tertiary butanol at a ratio of 1:10 (w/w) (siRNA/DOPC). Tween 20 (Sigma-Aldrich) was added to the mixture at a ratio of 1:19 Tween 20:siRNA/DOPC. The mixture was vortexed and frozen in an acetone/dry ice bath and lyophilized. Before administration, the siRNA preparation was reconstituted in 0.9% sterile saline and injected at a dose of 50 μl (5 μM) per injection. (b) Tumor therapy: Female athymic nude mice (NCr-nu) were purchased from the National Cancer Institute-Frederick Cancer Research and Development Center (Frederick, Md.) and housed in specific pathogen-free conditions.

PICSCs [3] = assay: Growth and survival of PICSCs after drug treatment; type: cell-based, mouse
Method: The PICSCs cells were treated with 100 μM drug (suprapharmacological dose) for 48 hours, and their growth and survival were evaluated. […] Moreover, the in vitro testing strategies allows for a mechanistic study of such compounds.

For `O=S1(=O)N[C@@]2(CN1CC(F)(F)F)[C@@H]1CC[C@H]2Cc2ccc(/C=C/CN3CCC(C(F)(F)F)CC3)cc2C1` [MRK-003], the tumor development [1] is listed as “completely inhibited tumor development; also recorded: completely blocked tumor development”.

In the case of `Nc1ccn([C@@H]2O[C@H](CO)[C@@H](O)C2(F)F)c(=O)n1` [Gemcitabine], the “PICSC cell death (% Dead/Live cells ratio)” value (PICSCs [2]) is reported as “significant increase in PICSC cell death”.

In the case of `C[C@H](NC(=O)Cc1cc(F)cc(F)c1)C(=O)N[C@H](C(=O)OC(C)(C)C)c1ccccc1` [DAPT], the anti-CSC growth properties (PICSC tumor xenografts) is reported as “potent anti-CSC growth properties” and the “PICSC cell death (% Dead/Live cells ratio)” value (PICSCs [2]) is reported as “increasing levels of PICSC cell death”.

With `CC[C@]1(O)C[C@@H]2CN(CCc3c([nH]c4ccccc34)[C@@](C(=O)OC)(c3cc4c(cc3OC)N(C)[C@H]3[C@@](O)(C(=O)OC)[C@H](OC(C)=O)[C@]5(CC)C=CCN6CC[C@]43[C@@H]65)C2)C1` [vinblastin, reference compound] the HCV replication (HCV subgenomic replicon) was “inhibition”.

For `N.N.[Cl][Pt][Cl]` [Cisplatin], the “PICSC cell death (% Dead/Live cells ratio)” value (PICSCs [2]) was “increasing levels of PICSC cell death”.

With `O=C1C(=Cc2ccccc2F)CNCC1=Cc1ccccc1F` [EF24, 3,5-bis(2-fluorobenzylidene)piperidin-4-one] the tumor xenograft growth (HCT116 tumor xenografts) was “significantly inhibited”, the “neurite formation, cell growth and cell death of PICSCs” value (PICSCs [3]; 1 μM) was “inhibited neurite formation, suppressed cell growth and induced cell death” and the anti-CSC growth properties (PICSC tumor xenografts) was “potent anti-CSC growth properties”. For the same compound, the “PICSC cell death (% Dead/Live cells ratio)” value (PICSCs [2]) was “increasing levels of PICSC cell death”.

For `OO` [hydrogen peroxide], the “PICSC cell death (% Dead/Live cells ratio)” value (PICSCs [2]) was “complete cell death”.

With `CCc1c2c(nc3ccc(OC(=O)N4CCC(N5CCCCC5)CC4)cc13)-c1cc3c(c(=O)n1C2)COC(=O)[C@]3(O)CC` [CPT-11, Irinotecan] the “growth and survival of PICSCs” value (PICSCs [3]; 100 μM drug, 48 hours) was “no significant effect” and the “PICSC cell death (% Dead/Live cells ratio)” value (PICSCs [2]) was “no cell death”.

For `COc1cc(/C=C/C(=O)CC(=O)/C=C/c2ccc(O)c(OC)c2)ccc1O` [curcumin], the “neurite formation, cell growth and cell death of PICSCs” value (PICSCs [3]; 30 μM) was “inhibited neurite formation, suppressed cell growth and induced cell death”.
